Assay results: patent US20100093706A1, “MULTIMEDIATOR TRANSPORTER INHIBITORS FOR USE IN TREATMENT OF CENTRAL NERVOUS SYSTEM DISORDERS” (priority 2006, published 2010)

Key:
DAT = target: T1, DAT (Homo sapiens, UniProt Q01959); conditions: human recombinant CHO-K1 cells; historical value (MDS Pharma Services); read-out: KD of radioligand, DAT assay; cited from earlier work
T1 construct: expressed in transfected cells; host or cells: CHO-K1

NET = target: T2, NET (Homo sapiens, UniProt P23975); conditions: human recombinant MDCK cells; historical value (MDS Pharma Services); read-out: KD of radioligand, NET assay; cited from earlier work
T2 construct: expressed in transfected cells; host or cells: MDCK
T2 sequence (P23975 whole entry): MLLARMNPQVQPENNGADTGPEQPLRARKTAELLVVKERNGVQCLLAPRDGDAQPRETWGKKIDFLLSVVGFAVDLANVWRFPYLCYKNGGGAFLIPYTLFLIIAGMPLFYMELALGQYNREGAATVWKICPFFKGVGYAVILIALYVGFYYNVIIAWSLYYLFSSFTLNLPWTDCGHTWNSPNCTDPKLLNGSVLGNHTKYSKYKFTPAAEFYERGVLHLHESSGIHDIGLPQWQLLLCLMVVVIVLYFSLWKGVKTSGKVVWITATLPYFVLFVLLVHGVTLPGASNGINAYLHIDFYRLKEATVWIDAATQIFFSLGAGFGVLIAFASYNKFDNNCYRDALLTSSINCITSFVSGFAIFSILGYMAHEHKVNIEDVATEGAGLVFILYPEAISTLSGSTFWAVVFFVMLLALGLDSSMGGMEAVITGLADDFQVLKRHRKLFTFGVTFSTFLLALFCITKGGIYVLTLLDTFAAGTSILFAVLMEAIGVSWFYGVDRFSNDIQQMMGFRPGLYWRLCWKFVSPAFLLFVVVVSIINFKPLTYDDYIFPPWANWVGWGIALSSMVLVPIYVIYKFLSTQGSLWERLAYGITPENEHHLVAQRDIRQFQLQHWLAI

5-HT (h) = target: T3, 5-HT (h) (Homo sapiens, UniProt P31645); experiment: cell-based; format: cell-based; conditions: read-out: 5-HT (h) in vitro functional uptake
T3 construct: expressed in transfected cells; host or cells: HEK-293
T3 sequence (P31645 whole entry): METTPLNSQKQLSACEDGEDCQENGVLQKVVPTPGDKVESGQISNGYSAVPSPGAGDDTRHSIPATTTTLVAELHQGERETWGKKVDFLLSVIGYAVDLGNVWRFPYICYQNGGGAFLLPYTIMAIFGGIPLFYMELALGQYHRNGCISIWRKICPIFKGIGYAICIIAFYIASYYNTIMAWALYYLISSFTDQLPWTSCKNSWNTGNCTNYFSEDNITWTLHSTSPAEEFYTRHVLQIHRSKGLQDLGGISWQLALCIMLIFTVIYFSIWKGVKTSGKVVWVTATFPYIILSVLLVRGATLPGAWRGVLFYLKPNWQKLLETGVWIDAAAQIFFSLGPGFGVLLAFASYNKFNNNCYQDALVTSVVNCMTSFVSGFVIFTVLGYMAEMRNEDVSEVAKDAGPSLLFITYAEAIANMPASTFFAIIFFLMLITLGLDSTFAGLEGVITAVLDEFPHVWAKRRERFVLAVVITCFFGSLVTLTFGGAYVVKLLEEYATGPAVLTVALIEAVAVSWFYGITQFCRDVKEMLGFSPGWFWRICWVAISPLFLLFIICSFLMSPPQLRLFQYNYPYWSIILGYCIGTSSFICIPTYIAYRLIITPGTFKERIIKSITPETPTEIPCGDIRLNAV
Protocol: (§1) Functional activity of the compounds was determined in vitro in cellular assays using recombinant human cell lines.

DAT (h) = target: T4, DAT (h) (Homo sapiens, UniProt Q01959); experiment: cell-based; format: cell-based
T4 construct: expressed in transfected cells
T4 sequence (Q01959 whole entry): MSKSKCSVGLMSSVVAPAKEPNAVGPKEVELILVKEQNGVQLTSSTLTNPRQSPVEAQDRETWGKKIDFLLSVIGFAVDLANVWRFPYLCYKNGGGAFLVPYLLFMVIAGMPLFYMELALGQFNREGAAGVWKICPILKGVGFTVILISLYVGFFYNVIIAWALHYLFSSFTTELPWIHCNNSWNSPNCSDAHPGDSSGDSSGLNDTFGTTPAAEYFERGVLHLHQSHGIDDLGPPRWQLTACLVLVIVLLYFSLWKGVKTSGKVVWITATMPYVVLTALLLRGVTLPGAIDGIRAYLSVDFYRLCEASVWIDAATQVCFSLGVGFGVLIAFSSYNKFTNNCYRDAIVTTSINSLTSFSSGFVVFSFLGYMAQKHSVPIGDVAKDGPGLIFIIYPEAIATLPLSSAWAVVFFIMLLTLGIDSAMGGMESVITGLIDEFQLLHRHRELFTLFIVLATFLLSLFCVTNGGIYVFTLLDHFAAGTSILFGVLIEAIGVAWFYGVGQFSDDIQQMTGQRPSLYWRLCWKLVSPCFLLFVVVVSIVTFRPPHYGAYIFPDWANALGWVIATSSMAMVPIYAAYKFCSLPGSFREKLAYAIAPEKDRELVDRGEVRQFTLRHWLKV
Protocol: as §1

NET (h) = target: T5, NET (h) (Homo sapiens, UniProt P23975); experiment: cell-based; format: cell-based; conditions: read-out: NET (h) in vitro functional uptake
T5 construct: expressed in transfected cells; host or cells: MDCK
T5 sequence (P23975 whole entry): as the sequence (P23975 whole entry) above
Protocol: as §1

sigma-1 (σ1) receptor = sigma-1 (σ1) receptor (Homo sapiens, UniProt Q99720); experiment: in vitro selectivity panel, sigma-1 receptor; format: binding
Sequence of sigma-1 (σ1) receptor (Q99720 whole entry): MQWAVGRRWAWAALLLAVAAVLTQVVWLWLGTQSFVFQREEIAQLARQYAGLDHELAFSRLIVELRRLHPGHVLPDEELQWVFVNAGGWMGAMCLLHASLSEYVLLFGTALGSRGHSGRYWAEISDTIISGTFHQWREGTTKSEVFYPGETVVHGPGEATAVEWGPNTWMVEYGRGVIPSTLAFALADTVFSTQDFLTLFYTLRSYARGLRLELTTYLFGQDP
Protocol: (§2) The in vitro selectivity profile of two representative subject compounds, (3) and (1), are also tested against a panel of other receptors, including the M1 receptor, Histamine H1 receptor, sigma-1 (σ1) receptor, β1-adrenergic receptor, and dopamine D2 receptor. Representative results are listed below in Table III: […]

DAT (SLC6A3) = target: T6, DAT (SLC6A3) (Homo sapiens, UniProt Q01959); experiment: in vitro inhibition profile, IC50 of DAT (uptake assay); format: cell-based
T6 construct: expressed in transfected cells
T6 sequence (Q01959 whole entry): as the sequence (Q01959 whole entry) above
Protocol: Before the assay, cells expressing DAT are washed once with KRH and equilibrated for 5 min. The cells may be assayed in 24-well plates and incubated for 2-5 min. with tritiated amines. Nontransported inhibitors were preincubated for 5 min, and substrates were applied together with the tritiated substrate.
Experiments to determine the ionic requirements for DAT-mediated uptake are done in KRH buffer, substituting LiCl or choline Cl for NaCl (sodium-dependence) or substituting D-gluconates for NaCl and KCl, and Ca(NO3)2 for CaCl2 (chloride dependence). Cells are washed twice with sodium- or chloride-free KRH before the assay (each wash step at least 5 min). In all transport assays, incubation periods and substrate concentrations are chosen such that uptake obeyed first-order rate kinetics.
Vmax values for amine uptake in stable transfected DAT-cells are determined in parallel assays for at least two amines per experiment and expressed as relative values.

DAT (r) = DAT (r) (Rattus norvegicus, UniProt P23977); experiment: in vitro functional uptake, rat DAT; format: cell-based
Sequence of DAT (r) (P23977 whole entry): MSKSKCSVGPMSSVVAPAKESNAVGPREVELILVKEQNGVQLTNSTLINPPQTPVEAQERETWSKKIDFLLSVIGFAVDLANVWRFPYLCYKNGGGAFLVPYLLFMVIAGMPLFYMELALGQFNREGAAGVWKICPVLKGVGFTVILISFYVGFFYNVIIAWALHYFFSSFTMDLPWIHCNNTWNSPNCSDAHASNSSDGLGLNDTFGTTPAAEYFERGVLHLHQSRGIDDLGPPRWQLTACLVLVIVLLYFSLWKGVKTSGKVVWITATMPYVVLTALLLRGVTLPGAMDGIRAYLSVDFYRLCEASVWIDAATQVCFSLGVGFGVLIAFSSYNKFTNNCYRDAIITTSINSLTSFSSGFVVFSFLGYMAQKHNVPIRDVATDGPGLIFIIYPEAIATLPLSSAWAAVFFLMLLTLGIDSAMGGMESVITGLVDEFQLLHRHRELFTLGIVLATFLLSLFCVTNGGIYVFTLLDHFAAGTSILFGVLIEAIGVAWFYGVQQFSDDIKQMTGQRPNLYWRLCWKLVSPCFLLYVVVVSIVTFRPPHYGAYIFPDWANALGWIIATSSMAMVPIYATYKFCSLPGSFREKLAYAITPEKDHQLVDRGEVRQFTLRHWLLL

Histamine H1 receptor = Histamine H1 receptor (Homo sapiens, UniProt P35367); experiment: in vitro selectivity panel, Histamine H1 receptor; format: binding
Sequence of Histamine H1 receptor (P35367 whole entry): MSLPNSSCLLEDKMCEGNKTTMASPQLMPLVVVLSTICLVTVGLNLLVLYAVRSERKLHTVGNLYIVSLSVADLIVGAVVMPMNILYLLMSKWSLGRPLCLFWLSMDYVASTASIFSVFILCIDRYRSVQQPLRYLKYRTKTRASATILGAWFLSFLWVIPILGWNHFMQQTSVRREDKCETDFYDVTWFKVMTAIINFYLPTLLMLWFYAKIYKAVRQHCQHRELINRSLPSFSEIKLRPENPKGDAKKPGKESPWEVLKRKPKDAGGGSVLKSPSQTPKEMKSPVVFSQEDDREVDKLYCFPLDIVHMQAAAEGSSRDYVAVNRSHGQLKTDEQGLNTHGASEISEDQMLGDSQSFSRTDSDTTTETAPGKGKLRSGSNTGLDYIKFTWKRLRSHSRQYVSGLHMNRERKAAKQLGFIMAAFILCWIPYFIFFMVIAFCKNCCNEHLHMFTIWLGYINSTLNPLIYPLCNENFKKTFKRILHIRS
Protocol: as §2

in vivo = conditions: rat
5-HT = 5-HT (Homo sapiens, UniProt P31645); experiment: cell-based
Sequence of 5-HT (P31645 whole entry): as the sequence (P31645 whole entry) above

M1 receptor = target: T7, M1 receptor (Homo sapiens, UniProt P11229); experiment: in vitro selectivity panel, M1 receptor; format: binding
T7 sequence (P11229 1-460): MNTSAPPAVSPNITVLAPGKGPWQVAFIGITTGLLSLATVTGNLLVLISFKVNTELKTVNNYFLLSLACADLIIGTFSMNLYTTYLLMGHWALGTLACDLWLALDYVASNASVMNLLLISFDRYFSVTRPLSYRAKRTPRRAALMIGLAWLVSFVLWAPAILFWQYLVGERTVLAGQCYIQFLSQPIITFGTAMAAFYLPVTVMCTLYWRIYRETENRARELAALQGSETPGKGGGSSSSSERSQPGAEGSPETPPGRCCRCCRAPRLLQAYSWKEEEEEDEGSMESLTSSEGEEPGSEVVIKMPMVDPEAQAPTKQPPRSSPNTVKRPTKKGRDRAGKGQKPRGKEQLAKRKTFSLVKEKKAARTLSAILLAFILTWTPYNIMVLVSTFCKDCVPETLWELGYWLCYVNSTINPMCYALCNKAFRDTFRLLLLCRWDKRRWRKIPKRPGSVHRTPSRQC
Protocol: as §2

dopamine D2 receptor = dopamine D2 receptor (Homo sapiens, UniProt P14416); experiment: in vitro selectivity panel, dopamine D2 receptor; format: binding
Sequence of dopamine D2 receptor (P14416 whole entry): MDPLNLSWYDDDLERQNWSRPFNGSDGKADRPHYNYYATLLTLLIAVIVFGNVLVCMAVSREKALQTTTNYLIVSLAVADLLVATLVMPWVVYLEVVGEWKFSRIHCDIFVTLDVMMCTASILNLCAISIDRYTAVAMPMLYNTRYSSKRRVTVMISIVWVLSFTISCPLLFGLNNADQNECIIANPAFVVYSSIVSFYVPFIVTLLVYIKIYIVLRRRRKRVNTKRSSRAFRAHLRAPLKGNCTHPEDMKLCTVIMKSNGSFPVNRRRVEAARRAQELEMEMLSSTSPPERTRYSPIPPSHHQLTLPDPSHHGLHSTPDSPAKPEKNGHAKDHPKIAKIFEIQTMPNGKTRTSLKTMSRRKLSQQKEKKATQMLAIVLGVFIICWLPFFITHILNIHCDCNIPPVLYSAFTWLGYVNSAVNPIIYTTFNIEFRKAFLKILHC
Protocol: as §2

rats = experiment: forced swim test (behavioral despair assay) in rats; format: in vivo; conditions: rat, i.p., racemic mixtures of diastereomers
Protocol: In vivo efficacy of several illustrative inhibitors of the instant invention, (1), (3), and (4), were measured using standard forced swim test model using rat. The objective of this study was to assess the antidepressant effects of test compounds in the behavioral despair assay in rats using a modification of a method described by Porsolt R. D. et al. in Behavioural despair in rats: a new model sensitive to antidepressant treatment, Eur. J. Pharmacol., 47: 379-391, 1978; Porsolt et al., Nature 266: 730-732, 1977; and Porsolt et al., in Psychopharmacology, Olivier, Mos, and Slangen (eds) Birkhäuser Verlag, Basel, pp. 137-159, 1991. Briefly, when mice (or rats) are forced to swim in a cylinder from which no escape is possible, they readily adopt a characteristic immobile posture and make no further attempts to escape except for small movements needed to keep floating. The immobility is considered by some to reflect a “depressive mood” (Porsolt et al., Nature 266: 730-732, 1977) in which animals cease to struggle to escape the aversive situation. The immobility induced by the procedure is influenced by a wide variety of antidepressants (Porsolt et al., in Psychopharmacology, Olivier, Mos, and Slangen (eds) Birkhauser Verlag, Basel, pp. 137-159, 1991) and has a good predictive validity in that it detects antidepressants with different mechanisms of action (TCAs, SSRIs, MAOIs, and other atypical ones). The test is sensitive to muscle-relaxant (benzodiazepines) and sedative (neuroleptics) effects, leading to enhanced immobility (Porsolt et al., supra).
In a typical experiment, animals are placed singly into a cylinder (e.g. 46×30 cm) containing fresh water at about 20° C. for 6 minutes. The activity (or immobility) of the animal is measured by an observer minute by minute. In more detail, the animals were preconditioned in a pretest session, where the rats were individually forced to swim inside a vertical plexiglass cylinder containing water maintained at 19-20° C. After 15 minutes in the water, they were allowed to dry for […] in a heated enclosure. Twenty-four hours later, the compounds were administered either intraperitoneally or orally to the animals. One hour after administration of the test compound, animals were put back into the cylinder containing water. The total duration of immobility was measured during the last 4 minutes of a 6 minute test.
The results are expressed as the percentage of variation of the total duration of immobility calculated from the mean value of the vehicle-treated group (% variation=[(immobility duration of vehicle−immobility duration of test compound)/(immobility duration of vehicle)]×100%).
In order to measure the in vivo efficacy of inhibiting DAT in rats using an inhibitor of the instant invention, one test inhibitor ((1), (3), or (4)) was injected i.p. as racemic mixtures of diastereomers into the animals, at various-doses (e.g. 7.5 and […]). Sibutramine (2.0 and 2.5 mg/kg), Bupropion (7.5 and 10 mg/kg), and Imipramine (30 mg/kg) were similarly administered as controls. […] Asterisks indicate highly statistical significant results.
A fourth inhibitor, (6) was administered p.o. as a racemic mixture of diastereomers at either 35 or 75 mg/kg. Sibutramine (5.0 and 3.75 mg/kg), Bupropion (30 and 40 mg/kg), and Imipramine (100 mg/kg) were similarly administered as controls.
Similarly, (1) was also administered p.o. as a racemic mixture of enriched (95:5) diastereomer at either 35 or 75 mg/kg. […]

[1] = target: NET (norepinephrine transporter or SLC6A2) (Homo sapiens, UniProt P23975); experiment: cell-based
Sequence of NET (norepinephrine transporter or SLC6A2) (P23975 whole entry): as the sequence (P23975 whole entry) above

β1-adrenergic receptor = β1-adrenergic receptor (Homo sapiens, UniProt P08588); experiment: in vitro selectivity panel, β1-adrenergic receptor; format: binding
Sequence of β1-adrenergic receptor (P08588 whole entry): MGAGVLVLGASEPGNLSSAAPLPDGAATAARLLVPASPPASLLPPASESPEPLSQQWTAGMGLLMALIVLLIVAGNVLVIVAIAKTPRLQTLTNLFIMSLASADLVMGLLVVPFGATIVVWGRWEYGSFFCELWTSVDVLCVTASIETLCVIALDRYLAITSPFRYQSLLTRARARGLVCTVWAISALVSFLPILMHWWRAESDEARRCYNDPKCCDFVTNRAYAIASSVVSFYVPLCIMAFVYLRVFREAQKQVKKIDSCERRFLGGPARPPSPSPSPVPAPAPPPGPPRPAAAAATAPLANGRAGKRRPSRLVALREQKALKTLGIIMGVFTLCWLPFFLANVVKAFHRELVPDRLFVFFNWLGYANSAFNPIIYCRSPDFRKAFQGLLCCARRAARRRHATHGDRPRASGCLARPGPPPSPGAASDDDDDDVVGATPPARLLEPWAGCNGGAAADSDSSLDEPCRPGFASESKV
Protocol: as §2

T1 sequence (Q01959 whole entry): as the sequence (Q01959 whole entry) above

In the case of `COC(=O)[C@H]1[C@@H](c2ccc(I)cc2)C[C@@H]2CC[C@H]1N2C` [[^125I] RTI-55], the Kd (DAT) is given as 0.58 nM and the Kd (NET) is given as 24 nM.
In the case of `CC1CCC(COc2ccc(C(F)(F)F)cc2)CN1CC1(c2ccc(Cl)cc2)CCC1` (stereo not drawn) [(3)], the EC50 (5-HT (h)) is reported as 825 nM, the EC50 (DAT (h)) is reported as 1 nM and the “selectivity for DAT over 5-HT” value (DAT (h)) is reported as 825 fold. The “selectivity for DAT over NET” value (DAT (h)) was 200 fold, the EC50 (NET (h)) was 200 nM and the “Sigma σ1 (nM)h” value (sigma-1 (σ1) receptor) was 5000 nM. The IC50 (DAT (SLC6A3)) was 1 nM, the “fold selectivity of DAT against related receptors (NET, 5-HT)” value (DAT (SLC6A3); from Table II IC50) was 150-550 fold and the EC50 (DAT (r)) was 50 nM. For the same molecule, the “Histamine H1 (nM)h” value (Histamine H1 receptor) was 5000 nM, the Vd (in vivo) was 10 L/kg and the half-life (in vivo; iv) was 8.33 h. For the same molecule, the bioavailability (in vivo; po) was 70%, the IC50 (5-HT) was 550 nM and the “M1 (nM)h” value (M1 receptor) was 5000 nM. The “D2 (nM)h” value (dopamine D2 receptor) was 1000 nM, the “forced swim test efficacy versus commercial drugs (FIG. 1)” value (rats) was “performed equally well, if not better, than the commercial drugs Sibutramine, Bupropion, and Imipramine” and the IC50 [1] was 150 nM. The “β1-adrenergic (nM)h” value (β1-adrenergic receptor) was 5000 nM.
